{"source": "patent US20160243051A1", "about": "“MONO DISPERSE POLYMER NANOPARTICLES, FUNCTIONALIZED NANOPARTICLES AND CONTROLLED FORMATION METHOD” (THE CURATORS OF THE UNIVERSITY OF MISSOURI, priority 2013, published 2016)", "experiment": "Near infrared whole body florescent imaging, IVIS in-vivo imaging system", "conditions": "nude mice, 100 μl injected once, 0.15 mg/ml ICG", "description": "Near Infrared based florescent imaging was carried out in nude mice through IVIS in-vivo imaging system. Briefly, 100 μl of samples of free ICG solution (0.15 mg/ml), PMMA-COOH (0.15 mg/ml of ICG present in nanoparticles) and Pegylated nanoparticles containing ICG (0.15 mg/ml) were injected once and their florescence were recorded at various time points as shown in FIGS. 8A-8C. […] There are three possible reasons for florescence quenching; namely, (i) degradation of free ICG physiological conditions, or (ii) rapid clearance of free ICG from the body, or (iii) a combination of both processes."}
{"smiles": "CC1(C)C(/C=C/C=C/C=C/C=C2\\N(CCCCS(=O)(=O)O)c3ccc4ccccc4c3C2(C)C)=[N+](CCCCS(=O)(=O)[O-])c2ccc3ccccc3c21", "note": "[free ICG, indocyanine green]", "values": [{"measurement": "time within which florescence diminished", "result": "≤ 6", "unit": "h"}, {"measurement": "time within which florescence was completely reduced to almost zero", "result": "≤ 24", "unit": "h"}]}
